Experimental data published in PMC11597353, “Synthesis of Novel Gefitinib-Conjugated 1,2,3-Triazole Derivatives and Their Effect of Inducing DNA Damage and Apoptosis in Tumor Cells” (Molecules, 2024).

Tests used:
[1] = test system: HepG2 cells; experiment: CCK8 cell viability / IC50 assay on HepG2 cells; details: for % Cell Viability (10 μM): 72 h; for IC50: read-out: HepG2, IC50 (μM) 72 h
[2] = test system: HepG2 cells; experiment: Colony formation assay; type: cell-based, human; details: 7 days
Experimental: A colony formation assay is used to assess the ability of adherent cells to proliferate and form cell colonies on a plate, making it one of the key methods for evaluating cell proliferation. We also employed the colony formation assay to further confirm that compounds 11m and 11t can inhibit liver cancer cell proliferation (as shown in Figure 5). HepG2 cells were treated with low, medium, and high concentrations (2, 4, and 8 μmol/L) of the compounds for 7 days, followed by counting the number of cell colonies and analyzing the proliferation inhibition rate.
HepG2 cells were seeded in 6-well plates at a density of 500 cells per well and incubated at 37 °C for 24 h, followed by treatment with 11m or 11t (2, 4, and 8 μM) for 24 h. The medium was then replaced with fresh culture medium, and after 7 days, the culture medium was removed and washed with PBS. Cells were fixed with 4% paraformaldehyde at room temperature for 20 min, stained with 0.1% crystal violet staining solution at room temperature for 20 min, and excess staining solution was washed off with distilled water. The plates were dried at 37 °C, photographed, and the number of colonies was counted using ImageJ.

[3] = test system: HepG2 cells; experiment: DAPI staining for apoptotic morphology; type: cell-based, human; details: HepG2, 2, 4, 8 μM, 48 h
Experimental: To confirm the apoptosis-inducing activity of 11m and 11t in liver cancer cells, HepG2 cells were treated with different concentrations of compounds 11m and 11t for 48 h, followed by DAPI staining.
HepG2 cells were seeded in 48-well plates and incubated for 24 h, then treated with different concentrations of 11m and 11t (2, 4, and 8 μM) for 48 h. After removing the original culture medium, the cells were washed with PBS and fixed with 4% paraformaldehyde at room temperature for 20 min. After washing with PBS, the cells were stained with DAPI (10 μg/mL) in the dark at room temperature for 5 min. After washing with PBS, apoptotic morphological changes were observed using a fluorescence microscope.

[4] = test system: normal liver cells (L02); experiment: CCK8 toxicity against normal liver cells (L02); details: Figure 3
[5] = test system: Kunming mice; experiment: Acute toxicity test in mice; type: in vivo
Experimental: To further assess the safety of the compounds, we conducted an acute toxicity experiment on mice.
Liver function was evaluated by measuring serum glutamic pyruvic transaminase (GPT) and glutamic oxaloacetic transaminase (GOT) levels (Figure 10C). GPT and GOT are commonly used indicators for assessing liver function, reflecting physiological and pathological changes in the liver. Elevated serum levels of GPT and GOT indicate damage to liver cells or mitochondria. […] This provides additional evidence for the high safety of the compound and experimental data for clinical drug safety (p > 0.05).
Six 5-week-old, SPF-grade, healthy, male Kunming mice (31.13 ± 1.13 g) were purchased from Henan Skibest Biotechnology Co., Ltd. (Anyang, China) (License No.: SCXK (Yu) 2020-0005). They were housed at the SPF animal center of the School of Basic Medicine and Forensic Science, Henan University of Science and Technology, with normal solid food and drinking water provided, and a 12 h light–dark cycle each day. After one week of acclimatization, the mice were randomly divided into two groups: the control group and the treatment group (11t), which were administered a single gavage of the corresponding volume of solvent and drug (drug concentration: 800 mg/kg; drug solvent: 10% DMSO + 40% PEG300 + 5% Tween 80 + 45% saline) at a dosage of 0.1 mL/10 g. After administration, the mice’s activity was monitored daily, and their weight was recorded. After 14 days, blood was collected via the eye and the mice were euthanized by cervical dislocation. The heart, liver, spleen, lungs, and kidneys were extracted, rinsed with saline, and the surface moisture was absorbed with filter paper. The weight of all organs was measured using an electronic balance. The organ coefficient was calculated as organ weight/body weight × 100. Blood samples were left at room temperature for 1 h, then centrifuged at 2500 rpm for 20 min to measure liver function indicators GPT and GOT (Nanjing Jiancheng Bioengineering Institute, Nanjing, China). After weighing the organs, they were fixed in 4% tissue fixative for 24 h, dehydrated, cleared, embedded in paraffin, and stained with HE for microscopic observation of the tissues.

[6] = mice, single gavage 800 mg/kg, day 14

| Compound | % Cell Viability (10 μM) [1] | IC50 [1] | colony formation in HepG2 cells ([2]; 4 μM) | colony formation in HepG2 cells ([2]; 8 μM) | apoptotic morphological changes (DAPI staining) [3] | toxicity against normal liver cells (L02) [4] | melting point | toxicity in mice ([5]; acute toxicity, 800 mg/kg gavage) | body weight vs control group ([5]; mice, single gavage 800 mg/kg, 14 days, p > 0.05) | histological analysis (H&E) of hearts, livers, spleens, lungs, and kidneys [5, 6] | organ indices of the heart, liver, spleen, lungs, and kidneys vs control group [5, 6] | organ morphological examination [5, 6] | serum GPT and GOT (biochemical indicators) vs control group ([5]; mice, single gavage 800 mg/kg, day 14, p > 0.05) |
| --- | --- | --- | --- | --- | --- | --- | --- | --- | --- | --- | --- | --- | --- |
| COc1cc2ncnc(Nc3cccc(-c4cn(Cc5ccc(I)cc5)nn4)c3)c2cc1OCCCN1CCOCC1 [Compound 11m, N-(3-(1-(4-iodobenzyl)-1H-1,2,3-triazol-4-yl)phenyl)-7-methoxy-6-(3-morpholinopropoxy)quinazolin-4-amine] | 5.86 ± 0.04% | 3.08 ± 0.37 µM | began to noticeably inhibit colony formation | almost completely suppressed | typical apoptotic characteristics | favorable safety profile | 185 to 186 °C | – | – | – | – | – | – |
| COc1cc2ncnc(Nc3cccc(-c4cn(Cc5cccc(I)c5)nn4)c3)c2cc1OCCCN1CCOCC1 [Compound 11t, N-(3-(1-(3-iodobenzyl)-1H-1,2,3-triazol-4-yl)phenyl)-7-methoxy-6-(3-morpholinopropoxy)quinazolin-4-amine] | 5.22 ± 0.36% | 3.6 ± 0.53 µM | began to noticeably inhibit colony formation | almost completely suppressed | typical apoptotic characteristics | favorable safety profile | – | low toxicity | no statistically significant differences | no significant toxic characteristics | no statistically significant differences | No pathological morphology was observed | no statistically significant differences |
